Test results: US12662705B2, “Interferon pathway genes regulate and predict efficacy of immunotherapy” (THE TRUSTEES OF THE UNIVERSITY OF PENNSYLVANIA, priority 2018, dated 2026)
Entries after “also recorded” stand apart in the source; their conditions may differ.

Legend:
JAK1 = JAK1 (Homo sapiens, UniProt P23458); details: read-out: half maximal inhibitory concentration [IC50]; cited from earlier work
[1] = total daily dose 1200 mg; cited from earlier work
[2] = system: PD-L1 positive advanced NSCLC; details: cited from earlier work
[3] = system: IFNGR knockout Res 499 tumors; assay: In vivo cytokine rescue studies in CD8 T cell-depleted mice; design: species or system mouse; details: direct intratumoral injection
Procedure: In vivo cytokine rescue studies: All mice were pre-treated with anti-CD8 two days before tumor injection. Either 1 μg IFNg or 100 ng CXCL10 was mixed in the PBS/tumor cell suspension prior to injection of the tumor. Mice then continued receiving 500-1000 ng IFNG or 100 ng CXCL10 intra/peritumorally every 3 days post-tumor implantation. For flow cytometry experiments, mice were harvested at day 13 to examine the effects of cytokine addback on immune recruitment in the absence of CD8 T cells. For survival experiments, intra/peritumoral injections continued every 3 days for the remainder of the experiment.

Chain of JAK1 (P23458 whole entry): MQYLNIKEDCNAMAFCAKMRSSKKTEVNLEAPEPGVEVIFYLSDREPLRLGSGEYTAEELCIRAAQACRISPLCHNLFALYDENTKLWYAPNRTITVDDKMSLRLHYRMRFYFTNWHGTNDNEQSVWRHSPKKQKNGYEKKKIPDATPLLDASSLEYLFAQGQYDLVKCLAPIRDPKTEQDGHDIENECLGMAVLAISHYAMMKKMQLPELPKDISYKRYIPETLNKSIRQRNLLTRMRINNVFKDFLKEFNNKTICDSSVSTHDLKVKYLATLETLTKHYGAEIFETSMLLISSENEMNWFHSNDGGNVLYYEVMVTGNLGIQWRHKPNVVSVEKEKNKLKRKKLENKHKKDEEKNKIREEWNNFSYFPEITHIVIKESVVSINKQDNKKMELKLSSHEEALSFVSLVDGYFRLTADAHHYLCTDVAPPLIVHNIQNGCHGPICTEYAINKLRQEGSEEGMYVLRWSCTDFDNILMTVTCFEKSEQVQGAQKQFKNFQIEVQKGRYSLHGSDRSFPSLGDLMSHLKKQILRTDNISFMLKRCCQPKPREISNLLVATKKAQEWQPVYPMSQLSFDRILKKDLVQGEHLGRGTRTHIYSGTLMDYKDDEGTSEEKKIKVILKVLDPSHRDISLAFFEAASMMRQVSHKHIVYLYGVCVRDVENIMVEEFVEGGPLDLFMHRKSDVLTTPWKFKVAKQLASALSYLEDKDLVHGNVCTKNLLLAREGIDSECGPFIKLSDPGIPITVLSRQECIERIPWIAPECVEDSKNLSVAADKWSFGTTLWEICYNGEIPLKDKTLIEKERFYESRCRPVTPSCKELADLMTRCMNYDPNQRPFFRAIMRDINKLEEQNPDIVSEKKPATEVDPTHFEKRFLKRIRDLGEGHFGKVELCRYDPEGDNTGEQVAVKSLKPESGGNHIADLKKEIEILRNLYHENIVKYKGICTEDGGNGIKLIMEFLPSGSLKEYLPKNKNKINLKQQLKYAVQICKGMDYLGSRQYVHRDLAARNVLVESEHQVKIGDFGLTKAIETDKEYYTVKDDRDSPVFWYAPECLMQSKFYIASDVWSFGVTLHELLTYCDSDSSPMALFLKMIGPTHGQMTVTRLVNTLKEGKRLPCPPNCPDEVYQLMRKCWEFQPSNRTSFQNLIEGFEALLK

**Q.** With `N#CCC1(n2cc(-c3ncnc4[nH]ccc34)cn2)CN(C2CCN(C(=O)c3ccnc(C(F)(F)F)c3F)CC2)C1` [Itacitinib] as the compound, how does the IC50 (JAK1) read?
**A.** 3.6 nM

**Q.** What about the “adverse events at highest total daily dose” value [1] of the same compound?
**A.** no adverse events

**Q.** Which “overall and progression free survival versus platinum doublet chemotherapy” value ([2]; PD-L1 expression greater than or equal to 50%) does the source give for “Pembrolizumab: humanized monoclonal antibody of the IgG4/kappa isotype blocking the interaction between PD-1 and its ligands” here?
**A.** superior overall and progression free survival; also recorded: improve overall survival and progression free survival

**Q.** And the response rate ([2]; first line NSCLC, tumors expressing high level of PD-L1 (>50%))?
**A.** 44.8%

**Q.** What about the ORR ([2]; untreated PD-L1 positive advanced NSCLC) of the same compound?
**A.** 45%

**Q.** With “CXCL10: IFNG-regulated CXCR3 ligand chemokine injected intra/peritumorally” as the compound, how does the “rescue of the decrease in NK/ILC frequency after CD8 T cell depletion” value [3] read?
**A.** partially rescue
